For one assay, the target named is T1, α2D-adrenoceptors (Rattus norvegicus, UniProt P22909).
T1 sequence (P22909 1-465): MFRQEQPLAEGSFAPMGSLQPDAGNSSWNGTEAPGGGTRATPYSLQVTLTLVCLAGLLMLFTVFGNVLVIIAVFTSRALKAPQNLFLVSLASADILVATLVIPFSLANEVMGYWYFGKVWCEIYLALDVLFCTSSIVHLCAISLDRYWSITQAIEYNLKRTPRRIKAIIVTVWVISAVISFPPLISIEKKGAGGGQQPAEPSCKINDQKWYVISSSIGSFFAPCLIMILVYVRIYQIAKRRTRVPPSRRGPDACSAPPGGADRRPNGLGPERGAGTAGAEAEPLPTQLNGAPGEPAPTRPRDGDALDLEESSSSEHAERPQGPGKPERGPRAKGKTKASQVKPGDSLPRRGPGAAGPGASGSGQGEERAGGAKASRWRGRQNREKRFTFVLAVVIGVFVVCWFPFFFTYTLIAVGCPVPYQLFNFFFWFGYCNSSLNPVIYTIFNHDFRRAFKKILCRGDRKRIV
Put plainly: inhibition of tritiated idazoxan binding to α2D-adrenoceptors in vitro. Also on record: species or system rat (male Charles River CD, frontal cortical tissue). As to conditions: rat frontal cortex; for Ki: [3H]idazoxan 1 nM, 0° C., 75 min.

The subject of a further assay is α1-adrenoceptors. Put plainly: inhibition of 7-methoxy-[3H]prazosin binding to α1-adrenoceptors in vitro. Also on record: species or system rat (male Charles River CD, whole cortical tissue). As to conditions: rat whole cortex, 30 min; for % displacement at 10^-6 M, α1: 7-methoxy-[3H]prazosin, 1 µM; for Ki: 7-methoxy-[3H]prazosin 0.1 nM, 30° C. The method, then: Whole cortical tissue from the brains of male Charles River CD rats weighing between 150-250 g were homogenised in ice-cold 50 mM Tris-HCl, pH 7.6 (at 25° C.; 1:40 w/v) and centrifuged at 1000 g at 4° C. for 10 minutes. The supernatant was centrifuged at 30,000 g at 4° C. for 10 minutes. The pellet was rehomogenised in 50 mM Tris-HCl, pH 7.6 (1:40 w/v) and centrifuged at 30,000 g at 4° C. for 10 minutes. The final pellet was resuspended in 50 mM Tris-HCl, pH 7.6 (equivalent to 12.5 mg wet weight of tissue/ml) and used immediately in the binding assay. Aliquots (400 μl; equivalent to 5 mg wet weight of tissue/tube) of this suspension were added to tubes containing the ligand (50 μl; 0.1 nM) and distilled water (50 μl; total binding) or phentolamine (50 μl; 5 μM; non-specific binding) or test compound (50 μl; at a single concentration of 10^-6 M or at 10 concentrations ranging from 10^-11 -10^-3 M). The ligand was 7-methoxy-[^3 H]prazosin and the mixture was incubated at 30° C. for 30 minutes before the incubation was terminated by rapid filtration. The filters were washed with ice-cold Tris-HCl buffer and dried. The filters were punched out into vials, scintillation fluid added and radioactivity determined by liquid scintillation counting. The percentage displacement of specific binding of the tritiated ligand was calculated for the single concentration (10^-6 M) of test compound. […] The concentration which gave 50% inhibition of specific binding (IC50) was obtained from the curve. The inhibition coefficient Ki was then calculated using the formula [formula] in which [ligand] is the concentration of the tritiated ligand used and KD is the equilibrium dissociation constant for the ligand.

The target of another assay is D2 dopamine receptors (Rattus norvegicus, UniProt P61169). Put plainly: inhibition of tritiated (S)-sulpiride binding to D2 dopamine receptors in vitro. More on the design: species or system rat (male Charles River CD, striatal tissue). As to conditions: rat striatum, tritiated (S)-sulpiride 1 nM, 4° C., 40 min.
The next assay has as its target T2, 5-HT1A receptors (Rattus norvegicus, UniProt P19327).
T2 sequence (P19327 1-422): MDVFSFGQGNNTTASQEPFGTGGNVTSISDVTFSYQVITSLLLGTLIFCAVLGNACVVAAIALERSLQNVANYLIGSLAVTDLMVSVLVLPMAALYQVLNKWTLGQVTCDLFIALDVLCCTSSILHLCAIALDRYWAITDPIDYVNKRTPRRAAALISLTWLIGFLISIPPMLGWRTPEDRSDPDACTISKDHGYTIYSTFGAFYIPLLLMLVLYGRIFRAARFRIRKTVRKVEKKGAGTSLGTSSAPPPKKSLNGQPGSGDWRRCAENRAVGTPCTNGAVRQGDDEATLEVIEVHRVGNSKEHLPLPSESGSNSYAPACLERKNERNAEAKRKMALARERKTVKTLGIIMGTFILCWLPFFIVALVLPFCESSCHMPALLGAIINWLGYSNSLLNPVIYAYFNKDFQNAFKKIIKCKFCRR
Put plainly: inhibition of [3H]8-OH-DPAT binding to 5-HT1A receptors in vitro. Also on record: species or system rat (male Sprague-Dawley, hippocampal tissue). The following applies: for inhibition at 1 µM: read-out: % displacement at 10^-6 M, 5-HT1A; for Ki: [3H]8-OH-DPAT 2 nM, 25° C., 30 min.

Where [1] appears, read: 10^-6 M, rat hippocampus, [3H]8-OH-DPAT.

The Ki is a measure of affinity in units of concentration, obtained from inhibition or displacement. Read a low Ki as higher affinity.

Where two headings read alike, the source gives them in different places.

D2 dopamine receptors, sequence (P61169 whole entry): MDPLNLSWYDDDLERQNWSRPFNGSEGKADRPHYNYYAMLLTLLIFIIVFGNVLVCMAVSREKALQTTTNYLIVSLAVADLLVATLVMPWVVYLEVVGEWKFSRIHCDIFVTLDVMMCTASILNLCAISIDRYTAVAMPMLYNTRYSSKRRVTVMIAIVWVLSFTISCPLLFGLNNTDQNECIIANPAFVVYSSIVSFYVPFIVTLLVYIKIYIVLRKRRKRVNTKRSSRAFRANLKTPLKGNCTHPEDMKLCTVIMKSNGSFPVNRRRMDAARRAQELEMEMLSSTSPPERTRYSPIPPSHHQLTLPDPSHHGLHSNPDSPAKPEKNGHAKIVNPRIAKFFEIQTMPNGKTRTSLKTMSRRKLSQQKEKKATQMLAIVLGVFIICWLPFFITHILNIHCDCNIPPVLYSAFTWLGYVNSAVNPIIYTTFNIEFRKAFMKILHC
Protocol for 5-HT1A receptors: Hippocampal tissue from the brains of male Sprague-Dawley rats (Charles River; weight range 150-250 g) was homogenised in ice-cold 50 mM Tris-HCl buffer (pH 7.7 when measured at 25° C., 1:40 w/v) and centrifuged at 30,000 g at 4° C. for 10 minutes. The pellet was rehomogenised in the same buffer, incubated at 37° C. for 10 minutes and centrifuged at 30,000 g at 4° C. for 10 minutes. The final pellet was resuspended in 50 mM Tris-HCl buffer (pH 7.7) containing 4 mM CaCl2. 0.1% L-ascorbic acid and 10 μM pargyline hydrochloride (equivalent to 6.25 mg wet weight of tissue/ml) and used immediately in the binding assay. Aliquots (400 μl; equivalent to 2.5 mg wet weight of tissue/tube) of this suspension were added to tubes containing the ligand (50 μl; 2 nM) and distilled water (50 μl; total binding) or 5-HT (50 μl; 10 μM; non-specific binding) or test compound (50 μl; at a single concentration of 10^-6 M or at 10 concentrations ranging from 10^-11 -10^-3 M). The ligand was [^3 H]8-hydroxy-2-(dipropylamino)tetralin ([^3 H]8-OH-DPAT) and the mixture was incubated at 25° C. for 30 minutes before the incubation was terminated by rapid filtration.
The filters were washed with ice-cold Tris-HCl buffer and dried. The filters were punched out into vials, scintillation fluid added and radioactivity determined by liquid scintillation counting. The percentage displacement of specific binding of the tritiated ligand was calculated for the single concentration (10^-6 M) of test compound. Displacement curves were then produced for those compounds which displaced ≥50% of specific binding of the tritiated ligand at 10^-6 M using a range of concentrations of the compound. The concentration which gave 50% inhibition of specific binding (IC50) was obtained from the curve. The inhibition coefficient Ki was then calculated using the formula [formula] in which [ligand] is the concentration of the tritiated ligand used and KD is the equilibrium dissociation constant for the ligand.

In the case of `C=CCn1c(C)nn(CCN2CCN(c3ccccc3OC)CC2)c1=O` [Example 70, 4-Allyl-2-{2-[4-(2-methoxyphenyl)piperazin-1-yl]ethyl}-5-methyl-1,2,4-triazol-3(2H,4H)-one], the inhibitory constant (Ki) is > 500 nM at α2D-adrenoceptors and 310 nM on D2 dopamine receptors. Also, the “% displacement at 10^-6 M, α1” value in the assay with α1-adrenoceptors turned out to be 64%. Moreover, on 5-HT1A receptors (setting [1]), the inhibition at 1 µM is 69%.

As for `C=CCn1c(-c2ccccc2)nn(CN2CCN(c3ccccc3OC)CC2)c1=S` [Example 52, 4-Allyl-2-[4-(2-methoxyphenyl)piperazin-1-ylmethyl]-5-phenyl-1,2,4-triazole-3(2H,4H)-thione], the inhibition constant (Ki) is 148 nM on α2D-adrenoceptors, > 500 nM on α1-adrenoceptors, 222 nM at D2 dopamine receptors and 150 nM on 5-HT1A receptors (rat hippocampus).

Take `COc1ccccc1N1CCN(Cn2ncn(C)c2=S)CC1` [Example 55, 2-[4-(2-Methoxyphenyl)piperazin-1-ylmethyl]-4-methyl-1,2,4-triazole-3(2H,4H)-thione]: the inhibition constant Ki is 194 nM at α2D-adrenoceptors, 358 nM on α1-adrenoceptors, 73 nM on D2 dopamine receptors and 108 nM on 5-HT1A receptors (rat hippocampus).

As to `C=CCn1c(-c2ccccn2)nn(CN2CCN(c3ccccc3OC)CC2)c1=S` [Example 58, 4-Allyl-2-[4-(2-methoxyphenyl)piperazin-1-ylmethyl]-5-(2-pyridyl)-1,2,4-triazole-3(2H,4H)-thione], the Ki on α2D-adrenoceptors was determined as 104 nM; on α1-adrenoceptors, 301 nM; at D2 dopamine receptors, 173 nM; on 5-HT1A receptors (rat hippocampus), 126 nM.

In the case of `COc1ccccc1N1CCN(Cn2nc(C(F)(F)F)n(C)c2=S)CC1` [Example 54, 2-[4-(2-Methoxyphenyl)piperazin-1-ylmethyl]-4-methyl-5-(trifluoromethyl)-1,2,4-triazole-3(2H,4H)-thione], the inhibition constant (Ki) was determined as 218 nM on α2D-adrenoceptors, 477 nM at α1-adrenoceptors, 243 nM at D2 dopamine receptors and 135 nM at 5-HT1A receptors (rat hippocampus).

For the compound `C=CCn1c(-c2cccs2)nn(CCN2CCN(c3ccccc3OC)CC2)c1=O` [Example 69, 4-Allyl-2-{2-[4-(2-methoxyphenyl)piperazin-1-yl]ethyl}-5-(2-thienyl)-1,2,4-triazol-3(2H,4H)-one], the Ki on α2D-adrenoceptors and on D2 dopamine receptors was > 500 nM each time. Moreover, the “% displacement at 10^-6 M, α1” value in the assay on α1-adrenoceptors stood at 93%. In addition, on 5-HT1A receptors (setting [1]), the inhibition at 1 µM worked out at 70%.

For the compound `C=CCn1c(-c2cccnc2)nn(CN2CCN(c3ncccn3)CC2)c1=S` [Example 57, 4-Allyl-5-(3-pyridyl)-2-[4-(pyrimidin-2-yl)piperazin-1-ylmethyl]-1,2,4-triazole-3(2H,4H)-thione], the inhibition at 1 µM on α2D-adrenoceptors (10^-6 M, [3H]idazoxan, read-out: % displacement at 10^-6 M, α2D) amounted to 95%. Further, the inhibition constant (Ki) at α1-adrenoceptors, at D2 dopamine receptors and at 5-HT1A receptors (rat hippocampus) was > 500 nM in each case.

As to `C=CCn1c(-c2cccnc2)nn(CCN2CCN(c3ccccc3OC)CC2)c1=O.Cl.Cl` [Example 67, 4-Allyl-2-{2-[4-(2-methoxyphenyl)piperazin-1-yl]ethyl}-5-(3-pyridyl)-1,2,4-triazol-3(2H,4H)-one dihydrochloride], the Ki at α2D-adrenoceptors and at D2 dopamine receptors was > 500 nM each time. Moreover, the “% displacement at 10^-6 M, α1” value in the assay on α1-adrenoceptors came out at 78%. In addition, on 5-HT1A receptors, the inhibition at 1 µM was 52%.

As for `COCCCn1c(-c2ccncc2)nn(CN2CCN(c3ccccc3OC)CC2)c1=S` [Example 50, 2-[4-(2-Methoxyphenyl)piperazin-1-ylmethyl]-4-(3-methoxypropyl)-5-(4-pyridyl)-1,2,4-triazole-3(2H,4H)-thione], the Ki at α2D-adrenoceptors is 194 nM; on α1-adrenoceptors it was > 500 nM; at D2 dopamine receptors, 192 nM; at 5-HT1A receptors (rat hippocampus) it was 170 nM.

Take `C=CCn1c(-c2cccnc2)nn(CN2CCN(c3cccc4c3OCCO4)CC2)c1=S` [Example 45, 4-allyl-2-[4-(1,4-benzodioxan-5-yl)piperazin-1-ylmethyl]-5-(3-pyridyl)-1,2,4-triazole-3(2H,4H)-thione]: the Ki at α2D-adrenoceptors is 225 nM; at α1-adrenoceptors it was > 500 nM; on D2 dopamine receptors it was 322 nM; at 5-HT1A receptors (rat hippocampus) it was 31 nM.
